Measured values taken from US7960549B2, “Solid forms of a chemokine receptor antagonist and methods of use thereof” (priority 2004, dated 2011).
Counter-ions that a name gives are not always drawn.

Experiments:
Format in all cases: physicochemical
[1] = Controlled temperature (isothermal) X-ray powder diffraction: thermal stability of the crystalline form; conditions: isothermal scans at intervals of 10° C.
Method: X-ray powder diffraction (XRPD) is performed on various samples of the Citrate Salt using one of three instruments. XRPD measurements with Instrument 1 utilize a Siemens-Bruker D5000 Matic powder diffractometer with a Bragg-Brentano (vertical θ-2θ configuration) parafocusing geometry. X-rays are produced from a sealed cobalt anode running at 40 kV and 30 mA. Two lines are typically emitted: CoKα1 (λ=1.7890 Å) and CoKα2 (λ=1.7929 Å). An iron β-filter limits the CoKβ (λ=1.6208 Å) radiation to about 1% of the diffracted beam at the detector. The primary beam passes through a parallel plate collimator (0.2 mm Soller slits), then through a divergence slit (0.2 mm). Diffracted X-rays are detected with a Braun 50 M multichannel linear detector having a 10°-wide detection window in angle 2θ. Scans are performed from 1.5° to 50.0° in 2θ, the scan time being 10 to 40 seconds per degree in 2θ. The error in the 2θ locations are typically within ±0.10 degrees.
In Instrument 3, XRPD measurements are performed at different temperatures to elucidate the evolution of crystal structure with temperature. Tests are carried out with a Siemens-Bruker D5000 diffractometer equipped with the Bragg Brentano parafocusing (θ-θ) geometry and an Anton-Paar TTK temperature chamber. Measurements utilize dry nitrogen or nitrogen streams having a particular humidity. The instrument specifications are substantially similar to the Siemens-Bruker D5000 Matic instrument described above (Instrument 1). Temperature is allowed to rise at a rate of 0.05° C./sec. Scans are recorded under the following conditions: a 1.5 to 50.0 degree scan in angle 2θ, 10 to 20 seconds counting time per degree in 2θ. Data are acquired in isotherm mode when the requested temperature is reached.

[2] = Thermal gravimetric analysis (TGA)
Method: Measurements utilizing thermal gravimetric analysis (TGA) are carried out on a T.A. instruments TGAQ500 analyzer. Mass calibration is performed with 10 and 100 mg certified masses. Temperature calibration is performed with Alumel® and nickel standards (Curie points of respectively 154° C. and 354° C.). Samples are exposed to a constant nitrogen stream of 60 ml/min, and temperature ranges from room temperature to 350° C. at a 5° C./min rate. The quantity of product tested is between 2 and 13 mg. The sample is deposited in an open aluminum sample pan, which is itself placed in a platinum pan. The temperatures identified from TGA scans of a particular sample are accurate to within ±3° C. Simultaneous TGA and DSC measurements are carried out using a […] thermal analysis system produced by the […] corporation. A liquid nitrogen cooling system makes it possible to work at temperatures below 20° C. The emitted gases, upon sample heating, are carried by a transfer capillary tube to a Pfeiffer mass spectrometer, the capillary tube heated to 150° C. The mass spectrometer can analyze molecular fragments at <<m/e>> ratios between 1 and 200 uma. A sample with a mass between 1 and 27 mg is contained in an open concave aluminum sample pan (75 μL capacity) exposed to a nitrogen stream. The sample is heated at a rate of 1 or 5° C./min.

[3] = Differential scanning calorimetry (DSC)
Method: Differential scanning calorimetry (DSC) analyses are performed using a T.A Instruments Q1000 thermal analyser. Analyses are carried out using nitrogen purge gas flowing at an average rate of 50 ml/min. A mechanical compressor cools the system, and equilibrates the instruments being used at ambient temperature between analyses. […] Energy calibration is performed with a certified indium calibrator (melting enthalpy of 28.45 J/g), applying a heating rate of 5° C./min. The temperatures identified from DSC scans of a particular sample are accurate to within ±3° C. […] Modulated temperature differential scanning calorimetry (MTDSC) is also used since deconvolution of the total heat flow into reversing and non-reversing heat flows allows the transitions to be easily identified. The samples were submitted to the same experimental temperature program: after the equilibration of the sample at −5° C., the samples were heated through a modulated program from −5° C. to 210° C. at a rate of 1° C./min. […] Experiments are performed using crimped aluminium sample pans or open pans in some cases. The quantity of product analysed is typically between 2 and 13 mg.

[4] = Water sorption/desorption cycling (dynamic vapor sorption, DVS) at 25° C., with XRPD before and after; conditions: 25° C.
Method: Water sorption measurements are performed on a DVS-1 automated gravimetric vapor sorption analyser (Surface Measurement Systems Ltd., London, UK). The DVS-1 measures the uptake and loss of vapor gravimetrically using a Cahn D200 recording ultra-microbalance with a mass resolution of ±0.1 μg. The relative humidity around the sample is controlled by mixing saturated and dry carrier gas streams using mass flow controllers. The temperature is maintained within ±0.1° C. by enclosing the entire system in a temperature-controlled incubator. A sample size between 15 and 20 mg is used. In general, the error in % (w/w) identified in a tested sample is ±0.1% (w/w).
Two protocols are utilized to operate the DVS. In one protocol, a sample is dried at 0% relative humidity (RH) to remove any surface water present and establish a dry, baseline mass. Next, the sample is exposed to the following relative humidity profile: 0%, 10%, 20%, 30%, 40%, 50%, 60%, 70%, 80%, 90%, 80%, 70%, 60%, 50%, 40%, 30%, 20%, 10%, 0%. In some instances, this profile is repeated, yielding 4 sets of data going up and down in RH. In another protocol, the sample is first equilibrated at 40% RH, then it was exposed to the following relative humidity profile: 40%, 50%, 60%, 70%, 80%, 90%, 100%, 90%, 80%, 70%, 60%, 50% 40% 30%, 20% 10%, 0%, 10%, 20%, 30%, 40%. […] If equilibrium state is not reached, the change in relative humidity took place automatically after 360 or 600 minutes. From the complete moisture sorption and desorption profile, an isotherm is calculated using the DVS Advanced Analysis Suite v3.6. All experiments were performed at 25° C.

[5] = Prolonged exposure to fixed relative humidity or rinsing with water, XRPD before and after; conditions: week long exposure; ambient temperature
[6] = heating rate 5° C./min, sample of the single form (Form H formed from Form E sample), ±3° C.
[7] = heating rate 5° C./min, A, B, H: melting/decomposition, E: loss of water and conversion to Form H, ±3° C.
[8] = mixture of Forms A and D, 0.3° C./min, Form D: conversion to Form A, Form A: melting/decomposition
[9] = sample including Forms A and C, 5° C./min, Form C: conversion to Form A, Form A: melting/decomposition

**Q.** Which “decomposition/melting observed with controlled temperature X-ray powder diffraction” value [1] does the source give for `CC(C)(O)c1ccc2c(c1)/C(=C/CCN1CC[C@](O)(c3ccc(Cl)cc3)C(C)(C)C1)c1cccnc1CO2` [Form A, citrate salt of (S)-4-(4-Chloro-phenyl)-1-{3-[7-(1-hydroxy-1-methyl-ethyl)-11H-10-oxa-1-aza-dibenzo[a,d]cyclohepten-5-ylidene]-propyl}-3,3-dimethyl-piperidin-4-ol] here?
**A.** above 170 °C

**Q.** And the “TGA weight loss from ambient temperature to about 100° C.” value ([2]; heating rate 5° C./min)?
**A.** about 0.23 % (w/w)

**Q.** And the “TGA weight loss of the transition” value ([2]; heating rate 5° C./min, sample of the single form (Form H formed from Form E sample))?
**A.** about 27.5 % (w/w)

**Q.** What about the “TGA weight loss transition, interpolated beginning temperature” value [2, 6] of the same compound?
**A.** about 164 °C

**Q.** What about the “TGA weight loss transition, temperature of maximum rate of weight loss” value [2, 6] of the same compound?
**A.** 183 °C

**Q.** What about the TGA weight loss ([2]; sample including Forms A and C) of the same compound?
**A.** 21.9 % (w/w)

**Q.** And the “TGA weight loss, temperature of maximum rate of weight loss” value ([2]; sample including Forms A and C)?
**A.** 183 °C

**Q.** And the “TGA weight loss, interpolated beginning temperature” value ([2]; sample including Forms A and C, Form C: conversion away from Form C, Form A: decomposition/melting)?
**A.** 168 °C

**Q.** What about the “DSC endothermic transition, Tmax” value ([3]; heating rate 1° C./min) of the same compound?
**A.** 167 °C

**Q.** What about the “DSC endothermic transition, interpolated beginning temperature” value ([3]; heating rate 1° C./min) of the same compound?
**A.** 164 °C

**Q.** What about the “DSC endothermic transition, Tmax” value [3, 7] of the same compound?
**A.** 176 °C

**Q.** And the “DSC endothermic transition, interpolated beginning temperature” value [3, 7]?
**A.** 169 °C

**Q.** And the “DSC endothermic transition, Tmax” value [3, 8]?
**A.** 166 °C

**Q.** And the “DSC endothermic transition, interpolated beginning temperature” value [3, 8]?
**A.** about 160 °C

**Q.** And the “DSC endothermic transition, Tmax” value [3, 9]?
**A.** 178 °C

**Q.** And the “DSC endothermic transition, interpolated beginning temperature” value [3, 9]?
**A.** about 173 °C

**Q.** And the “change in moles of water per mole of anhydrous crystal over relative humidity 0% to 90%” value [4]?
**A.** about 0.8 moles of water per mole of anhydrous crystal

**Q.** What about the “change in mass as the relative humidity is changed between 0% and 90%” value ([4]; dry crystal basis, known to within ±0.1%) of the same compound?
**A.** about 1.9%

**Q.** What about the “XRPD before and after water sorption/desorption cycling” value ([4]; two consecutive cycles, 0% to 90% relative humidity) of the same compound?
**A.** no structural change

**Q.** What about the “crystal form by XRPD after exposure to a relative humidity of 97.5%” value [5] of the same compound?
**A.** does not change form
